Assay results published in patent US5066783A, “Antiviral peptides and means for treating herpes infections” (priority 1988, dated 1991).
Several values for one entry are separate records, joined by “and”; a condition that tells them apart may be missing. Equal values may be shown once. Where a SMILES comes first, the peptide text is derived from it. Where no end group is shown, it is not given here. [ ]: non-standard residue; d: D form. The star is where a group is joined. Phe(4-NO2) = N[C@@H](Cc1ccc([N+](=O)[O-])cc1)C(=O)O; Phe(4-NH2) = Nc1ccc(C[C@H](N)C(=O)O)cc1; Desaminotyrosyl = O=C(CCc1ccc(O)cc1)*

What follows are compounds tested against T1, herpes simplex viral ribonucleotide reductase (Human herpesvirus 1, UniProt P08543) (assay: biochemical). Conditions: not given.
T1 construct: endogenous in cells
Type: biochemical, herpes simplex virus

T1 sequence (P08543 whole entry): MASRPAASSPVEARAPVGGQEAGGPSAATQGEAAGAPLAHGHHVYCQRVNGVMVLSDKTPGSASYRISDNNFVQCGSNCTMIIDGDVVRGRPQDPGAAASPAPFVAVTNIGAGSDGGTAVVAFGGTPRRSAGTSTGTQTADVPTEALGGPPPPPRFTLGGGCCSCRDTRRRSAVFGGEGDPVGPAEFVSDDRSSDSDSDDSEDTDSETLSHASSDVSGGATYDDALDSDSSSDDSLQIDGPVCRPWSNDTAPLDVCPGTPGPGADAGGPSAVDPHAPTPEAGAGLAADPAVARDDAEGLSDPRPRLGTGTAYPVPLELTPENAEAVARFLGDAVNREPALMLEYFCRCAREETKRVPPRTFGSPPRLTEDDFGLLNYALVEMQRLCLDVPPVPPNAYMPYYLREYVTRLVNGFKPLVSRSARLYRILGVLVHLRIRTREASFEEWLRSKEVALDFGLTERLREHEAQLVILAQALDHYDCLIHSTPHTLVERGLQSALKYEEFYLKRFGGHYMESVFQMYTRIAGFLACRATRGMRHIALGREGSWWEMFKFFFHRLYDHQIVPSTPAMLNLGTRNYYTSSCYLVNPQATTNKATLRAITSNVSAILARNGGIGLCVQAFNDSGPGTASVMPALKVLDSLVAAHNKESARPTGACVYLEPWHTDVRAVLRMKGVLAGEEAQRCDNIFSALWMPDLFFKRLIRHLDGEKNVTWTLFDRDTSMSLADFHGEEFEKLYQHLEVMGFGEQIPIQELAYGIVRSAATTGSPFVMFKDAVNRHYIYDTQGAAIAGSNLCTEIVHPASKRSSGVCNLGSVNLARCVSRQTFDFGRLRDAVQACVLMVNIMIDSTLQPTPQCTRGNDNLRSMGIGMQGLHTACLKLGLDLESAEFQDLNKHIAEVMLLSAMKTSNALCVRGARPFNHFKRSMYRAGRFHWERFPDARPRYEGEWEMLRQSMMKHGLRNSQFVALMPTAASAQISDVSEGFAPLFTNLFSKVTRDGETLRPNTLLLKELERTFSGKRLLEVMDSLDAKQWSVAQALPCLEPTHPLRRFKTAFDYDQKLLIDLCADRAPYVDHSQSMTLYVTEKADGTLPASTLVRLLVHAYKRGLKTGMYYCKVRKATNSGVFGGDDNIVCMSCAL

Compound	IC50 [µM]
CC[C@H](C)[C@H](NC(=O)[C@@H](NC(=O)[C@H](Cc1ccc(OC)cc1)NC(C)=O)C(C)C)C(=O)N[C@@H](CC(N)=O)C(=O)N[C@@H](CC(=O)O)C(=O)N[C@@H](CC(C)C)C(=O)O [Ac--Tyr(OMe)--Val--Ile--Asn--Asp--Leu--OH] (Ac-Y(Me)VINDL-OH)	24
CC[C@H](C)[C@H](NC(=O)[C@@H](NC(=O)CCc1ccc(O)cc1)C(C)C)C(=O)N[C@@H](CC(N)=O)C(=O)N[C@@H](CC(=O)O)C(=O)N[C@@H](CC(C)C)C(=O)O [desamino-Tyr--Val--Ile--Asn--Asp--Leu--OH] (Desaminotyrosyl-VINDL-OH)	17
Ac-FVINDL-OH [Ac--Phe--Val--Ile--Asn--Asp--Leu--OH]	42
Ac-YAATVINDL-OH [Ac--Tyr--Ala--Ala--Thr--Val--Ile--Asn--Asp--Leu--OH]	15
Ac-YAGTIVNDL-OH [Ac--Tyr--Ala--Gly--Thr--Ile--Val--Asn--Asp--Leu--OH]	4.9
Ac-YAGTVIQDL-OH [Ac--Tyr--Ala--Gly--Thr--Val--Ile--Gln--Asp--Leu--OH]	36.5
Ac-YSVINDL-OH [Ac--Tyr--Ser--Val--Ile--Asn--Asp--Leu--OH]	77
Ac-YVINDL-OH [Ac--Tyr--Val--Ile--Asn--Asp--Leu--OH]	27
Ac-YVVNDL-OH [Ac--Tyr--Val--Val--Asn--Asp--Leu--OH]	31
H-FAGAVVNDL-OH [H--Phe--Ala--Gly--Ala--Val--Val--Asn--Asp--Leu--OH]	68
H-YAGAVLDDL-OH [H--Tyr--Ala--Gly--Ala--Val--Leu--Asp--Asp--Leu--OH]	90
H-YAGAVVNDI-OH [H--Tyr--Ala--Gly--Ala--Val--Val--Asn--Asp--Ile--OH]	110
H-YAPAVINDL-OH [H--Tyr--Ala--Pro--Ala--Val--Ile--Asn--Asp--Leu--OH]	37

Same assay, conditions: 75 μg enzyme preparation (21.6 units mg^-1); mean of four assays

Compound	IC50 [µM]
CC[C@H](C)[C@H](NC(=O)[C@H](CC(=O)O)NC(=O)[C@H](CC(N)=O)NC(=O)[C@@H](NC(=O)[C@@H](NC(=O)[C@H](C)NC(=O)CNC(=O)[C@H](C)NC(=O)[C@H](Cc1ccc(O)cc1)NC(=O)[C@@H](N)Cc1ccc(N)cc1)C(C)C)C(C)C)C(=O)O [H--(4-NH2 -Phe)--Tyr--Ala--Gly--Ala--Val--Val--Asn--Asp--Ile--OH] (H-[Phe(4-NH2)]YAGAVVNDI-OH)	15
CC[C@H](C)[C@H](NC(=O)[C@H](CC(=O)O)NC(=O)[C@H](CC(N)=O)NC(=O)[C@@H](NC(=O)[C@@H](NC(=O)[C@H](C)NC(=O)CNC(=O)[C@H](C)NC(=O)[C@H](Cc1ccc(O)cc1)NC(=O)[C@@H](N)Cc1ccc([N+](=O)[O-])cc1)C(C)C)C(C)C)C(=O)O [H--(4-NO2 -Phe)--Tyr--Ala--Gly--Ala--Val--Val--Asn--Asp--Ile--OH] (H-[Phe(4-NO2)]YAGAVVNDI-OH)	6.8
CC(C)C[C@H](NC(=O)[C@H](CC(=O)O)NC(=O)[C@H](CC(N)=O)NC(=O)[C@@H](NC(=O)[C@@H](NC(=O)[C@H](C)NC(=O)CNC(=O)[C@H](C)NC(=O)[C@H](Cc1ccc(O)cc1)NC(=O)CCCCCCCN)C(C)C)C(C)C)C(=O)O [NH2 (CH2)7 CO--Tyr--Ala--Gly--Ala--Val--Val--Asn--Asp--Leu--OH]	12.3
Ac-Y(Ac)AGFVINDL [Ac--Tyr(OAc)--Ala--Gly--Phe--Val--Ile--Asn--Asp--Leu--OH]	14
Ac-YAGFVINDL-OH [Ac--Tyr--Ala--Gly--Phe--Val--Ile--Asn--Asp--Leu--OH]	4.2
H-HAGAVVNDL-OH [H--His--Ala--Gly--Ala--Val--Val--Asn--Asp--Leu--OH]	400
H-YAGTVINDL-OH [H--Tyr--Ala--Gly--Thr--Val--Ile--Asn--Asp--Leu--OH]	15
H-YSGAVVNDL-OH [H--Tyr--Ser--Gly--Ala--Val--Val--Asn--Asp--Leu--OH]	90

Same assay, conditions: IC50 (concentration producing 50% of the maximal inhibition of enzyme activity)

Compound	IC50
Ac-YAGTVINDL-OH [Ac--Tyr--Ala--Gly--Thr--Val--Ile--Asn--Asp--Leu--OH]	2 µM and 5.2 µM
Ac-YAGVVINDL-OH [Ac--Tyr--Ala--Gly--Val--Val--Ile--Asn--Asp--Leu--OH]	4.3 µM
Ac-YSGTVINDL-OH [Ac--Tyr--Ser--Gly--Thr--Val--Ile--Asn--Asp--Leu--OH]	1.9 µM

Same assay, conditions: read-out: IC50 (concentration producing 50% of the maximal inhibition of enzyme activity)

Compound	IC50 [µM]
CC(=O)N[C@H](Cc1ccc(O)cc1)C(=O)N[C@@H](C)C(=O)NCC(=O)N[C@@H](C)C(=O)N[C@H](C(=O)N[C@H](C(=O)N[C@@H](CC(N)=O)C(=O)N[C@@H](CC(=O)O)C(=O)N[C@@H](CC(C)C)C(=O)O)C(C)C)C(C)C [Ac--D--Tyr--Ala--Gly--Ala--Val--Val--Asn--Asp--Leu--OH]	165
CC(=O)N[C@@H](Cc1ccc(O)cc1)C(=O)N[C@@H](C)C(=O)NCC(=O)N[C@@H](C)C(=O)N[C@H](C(=O)N[C@H](C(=O)N[C@@H](CC(N)=O)C(=O)N[C@@H](CC(=O)O)C(=O)N[C@@H](CC(C)C)C(=O)O)C(C)C)C(C)C [Ac--Tyr--Ala--Gly--Ala--Val--Val--Asn--Asp--Leu--OH]	20
CC(=O)N[C@@H](Cc1ccc(O)cc1)C(=O)N[C@H](C)C(=O)NCC(=O)N[C@@H](C)C(=O)N[C@H](C(=O)N[C@H](C(=O)N[C@@H](CC(N)=O)C(=O)N[C@@H](CC(=O)O)C(=O)N[C@@H](CC(C)C)C(=O)O)C(C)C)C(C)C [Ac--Tyr--D--Ala--Gly--Ala--Val--Val--Asn--Asp-- Leu--OH]	230
COc1ccc(C[C@H](N)C(=O)N[C@@H](C)C(=O)NCC(=O)N[C@@H](C)C(=O)N[C@H](C(=O)N[C@H](C(=O)N[C@@H](CC(N)=O)C(=O)N[C@@H](CC(=O)O)C(=O)N[C@@H](CC(C)C)C(=O)O)C(C)C)C(C)C)cc1 [H--Tyr(OMe)--Ala--Gly--Ala--Val--Val--Asn--Asp--Leu--OH]	88
CC(C)C[C@H](NC(=O)[C@H](CC(=O)O)NC(=O)[C@H](CC(N)=O)NC(=O)[C@@H](NC(=O)[C@@H](NC(=O)[C@H](C)NC(=O)CNC(=O)[C@H](C)NC(=O)[C@@H](N)Cc1ccc(O)cc1)C(C)C)C(C)C)C(N)=O [H--Tyr--Ala--Gly--Ala--Val--Val--Asn--Asp--Leu--NH2]	190
Ac-YGAVVNDL-OH [Ac--Tyr--Gly--Ala--Val--Val--Asn--Asp--Leu--OH]	150
H-YAVVNDL-OH [H--Tyr--Ala--Val--Val--Asn--Asp--Leu--OH]	340

Same assay, conditions: read-out: IC50 (concentration producing 50% of the maximal inhibition of enzyme activity); 75 μg enzyme preparation (21.6 units mg^-1); mean of four assays

Compound	IC50 [µM]
COc1ccc(C[C@H](NC(C)=O)C(=O)N[C@@H](C)C(=O)NCC(=O)N[C@@H](C)C(=O)N[C@H](C(=O)N[C@H](C(=O)N[C@@H](CC(N)=O)C(=O)N[C@@H](CC(=O)O)C(=O)N[C@@H](CC(C)C)C(=O)O)C(C)C)C(C)C)cc1 [Ac--Tyr(OMe)--Ala--Gly--Ala--Val--Val--Asn--Asp--Leu--OH]	40
CC(=O)N[C@@H](Cc1ccc(O)cc1)C(=O)N[C@@H](C)C(=O)NCC(=O)N[C@@H](C)C(=O)N[C@H](C(=O)N[C@H](C(=O)N[C@@H](CC(N)=O)C(=O)N[C@@H](CC(=O)O)C(=O)N[C@@H](CC(C)C)C(N)=O)C(C)C)C(C)C [Ac--Tyr--Ala--Gly--Ala--Val--Val--Asn--Asp--Leu--NH2]	76
Ac-YAVVNDL-OH [Ac--Tyr--Ala--Val--Val--Asn--Asp--Leu--OH]	330
H-KYAGAVVNDL-OH [H--Lys--Tyr--Ala--Gly--Ala--Val--Val--Asn--Asp--Leu--OH]	68
H-YAGPVVNDL-OH [H--Tyr--Ala--Gly--Pro--Val--Val--Asn--Asp--Leu--OH]	48
